Measured values as given in patent US20100204237A1, “Hydroxypyrimidinone derivatives having inhibitory activity against HIV integrase” (priority 2003, published 2010).
In brackets after ≈: the same amount, converted by molar mass.

Key:
HIV (HTLV-IIIB strain) = experiment: inhibitory activities against HIV cell proliferation, MT-4 cells, MTT (Experimental Example 2); format: cell-based; conditions: Human immunodeficiency virus 1, IIIB, MT4, 96 h, concentration at which 50% of cytopathy caused by viruses was inhibited, 4 days, read-out: Experimental example 2 (EC50, ng/ml)
Description: The inhibitory activities against HIV cell proliferation were determined by the assay method described below. • (1) HIV (HTLV-IIIB strain) persistence infection human T-cell strain Molt-4 clone 8 was cultured on RPMI-1640 medium supplemented with 10% fetal bovine serum, and the supernatant was measured for viral titer after filtration, and stored at −80° C. On the other hand, each anti-HIV active agent was diluted in the above culture medium to a predetermined concentration, and each well of a 96-well microplate was added with 50 μl of the resultant active agent solution. Then, 100 μl (3.5×10^4 cells) each of MT-4 cell suspension was poured into each well, followed by each 50 μl (60 pfu (plaque forming unit)) of the HIV-containing supernatant diluted with the above culture medium. • (2) After incubating for 4 days in a carbon dioxide incubator at 37° C., every well was added with 30 μl of 3-(4,5-dimethylthiazole-2-yl)-2,5-diphenyltetrazolium bromide (MTT) 5 mg/ml), PBS, and incubated for another 1 hour. At this time, since living cells reduce MTT to cause precipitation of formazane, 150 μl of cell supernatant was removed from each well, and instead 150 μl of lysis solution (isopropanol supplemented with 10% Triton X-100 and 0.4% (v/v) HCl) was added, to make formazane eluate by shaking with a plate mixer. […] The concentration of Compound at which 50% of cytopathy caused by viruses was inhibited was defined as EC50.

HIV integrase = HIV integrase (Human immunodeficiency virus type 1 group M subtype B, UniProt P04585); experiment: inhibitory activities against integrase (Experimental Example 1); format: biochemical; conditions: integrase inhibition, OD405 nm plate assay; read-out: Experimental example 1 (IC50, ng/ml) (converted)
Description: The inhibitory activities against integrase were determined by the assay described below.
A substrate DNA, solution (2 pmol/μl) and a target DNA solution (5 pmol/μl) were prepared in the manner as described in Experimental example 1 of WO 2004/024693. Before using the DNA solutions, complementary chains were annealed by slowly cooling after boiling. Substrate DNA and target DNA had sequences as described in that Experimental example.
Streptavidin, obtained from Vector Laboratories, was dissolved in 0.1 M carbonate buffer (composition: 90 mM Na2CO3, 10 mM NaHCO3) at concentration of 40 μg/ml. After coating each well of immunoplates (obtained from NUNC) with 50 μl of the above solution at 4° C. over night, each well was washed twice with PBS (composition: 13.7 mM NaCl, 0.27 mM KCl, 0.43 mM Na2HPO4, 0.14 mM KH2PO4) and blocked with 300 μl of 1% skim milk in PBS for 30 min. Additionally, each well was washed twice with PBS and added 50 μl of substrate DNA solution (2 pmol/μl). The immunoplates were kept at room temperature for 30 min while shaking. Then, each well was washed twice with PBS and once with H2O.
Subsequently, in the each well prepared above were added 51 μl of the reaction solution prepared from 12 μl of the buffer (composition: 150 mM MOPS (pH 7.2), 75 mM MnCl2, 50 mM 2-mercaptoethanol, 25% glycerol, 500 μg/ml bovine serum albumin-fraction V), and 39 μl of the distilled water. Then 9 μl of an integrase solution (30 pmol) was added and mixed well. In the well of negative control (NC) was added 9 μl of the integrase dilution buffer (composition: 20 mM MOPS (pH7.2), 400 mM potassium glutamate, 1 mM EDTA, 0.1% NP-40, 20% glycerol, 1 mM DTT, 4M urea), and mixed well using a plate mixer.
The plates were incubated at 30° C. for 60 minutes. The reaction solution was removed and washed three times with 250 μl of washing buffer (composition: 150 mM MOPS (pH7.2), 50 mM 2-mercaptoethanol, 25% glycerol, 500 μg/ml bovine serum albumin-fraction V).
Then each well was added with 53 μl of reaction solution prepared from 12 μl of buffer (composition: 150 mM MOPS (pH7.2), 75 mM MgCl2, 50 mM 2-mercaptoethanol, 25% glycerol, 500 μg/ml bovine serum albumin-fraction V) and 41 μl of distilled water. Further, each well was added with 6 μl of DMSO solution of a compound to be tested, and the well of positive control (PC) was added with 6 μl of DMSO, and mixed well by a plate mixer. After incubating the plate for 30 minutes at 30° C., was added 1 μl of target DNA (5 pmol/μl), and mixed well by a plate mixer.
After incubation for 10 minutes at 30° C., each plate was washed twice with PBS after removal of the reaction solution. […] The optical density at 405 nm (OD405 nm) of each well was measured and the inhibition rate (IC50) was determined by the following expression. […]

For Cc1nc(-c2nnc(Cc3ccc(F)cc3)o2)c(O)c(=O)[nH]1 [Comparative example 1, reference compound], the EC50 (HIV (HTLV-IIIB strain)) was 19000 ng/mL (≈ 62.9 µM) and the IC50 (HIV integrase) was 92.6 nM.
In the case of CC(=O)N1CCC[C@H]1c1nc(-c2nnc(Cc3ccc(F)cc3)o2)c(O)c(=O)n1C [Compound I-2], the melting point is reported as 170 to 172 °C, the EC50 (HIV (HTLV-IIIB strain)) is reported as 38 ng/mL (≈ 0.0919 µM) and the IC50 (HIV integrase) is reported as 138 nM.
Work on CN(C(=O)c1ccccn1)C(C)(C)c1nc(-c2ncc(Cc3ccc(F)cc3)s2)c(O)c(=O)[nH]1 [Compound I-45] yielded a melting point of 245 °C, an EC50 (HIV (HTLV-IIIB strain)) of 5.6 ng/mL (≈ 0.0117 µM) and an IC50 (HIV integrase) of 12.1 nM.
For CCN1C(C)n2c(nc(-c3ncc(Cc4ccc(F)cc4)s3)c(O)c2=O)C1(C)C (centres unmarked) [Compound I-60], the melting point was 165 to 168 °C, the EC50 (HIV (HTLV-IIIB strain)) was 18 ng/mL (≈ 0.0434 µM) and the IC50 (HIV integrase) was 15.9 nM.
